In patent US20060019270A1, “Global DNA methylation assessment using bisulfite PCR” (Board of Regents The University of Texas System, priority 2004, published 2006):

How the values were obtained:
[1] = system: Alu element methylation in RKO cells; test: COBRA (MboI) of Alu repetitive element PCR, RKO cells treated with DAC; format: cell-based, human; details: 5 μM DAC for three days, decrease from 26%
Description: (§1) Hct116, RKO and SW48, colon cancer cell lines (American Type Culture Collection, Manassas, Va.), were cultured using standard methods. Cells were treated with 5 μM 5-aza-2′deoxycytidine (DAC) for three days prior to being harvested. DNA from cell lines and peripheral blood leukocytes was extracted using phenol-chloroform extraction methods well known to one with skill on the art.
(§2) Bisulfite modification of genomic DNA is known in the art (see Clark et. al, 1994). In brief, 1.5 μg prepared 10 mM hydroquinone (Sigma) and 520 μl of 3M Sodium Bisulfite (Sigma) at pH=5.0 were added and mixed. The samples were overlayed with mineral oil to prevent evaporation and incubated at 50° C. for 16 hours. […] Bisulfite treated DNA was stored at −20° C. until ready for use.
Methylation analysis of Alu repetitive elements was performed initially by the COBRA assay. […] The digested PCR product was then separated by polyacrylamide gel electrophoresis or the PCR products were quantitated using a capillary electrophoresis system, an Agilent 2100 Bioanalyzer (Agilent Technologies, Palo Alto, Calif.).
In order to test whether Alu element […] LINE-1 methylation could approximate global methylation, COBRA, restriction digestion of the repetitive element PCR product, was used to quantitate DNA methylation in cell lines treated with 5-aza-2′deoxycytidine (DAC) (FIG. 3). […]

[2] = system: Alu element methylation in Hct116 cells; test: Bisulfite Alu PCR and pyrosequencing, Hct116 cells treated with DAC; format: cell-based, human
Description: as §1, §2
The Alu element PCR reaction was modified for pyrosequencing based methylation analysis. […] The PCR product was purified and quantitated using the PSQ HS 96 Pyrosequencing System (Pyrosequencing, Inc.; Westborough, Mass.). […]
Bisulfite Alu PCR products could also be analyzed by pyrosequencing allowing for a rapid analysis of multiple CpG sites. […] This method has the advantage of analyzing several methylation sites, is not restricted to restriction enzyme sites, avoids sequencing multiple clones, and allows accurate quantitation of multiple CpG methylation sites in the same reaction. […]

In the case of `Nc1ncn([C@H]2C[C@H](O)[C@@H](CO)O2)c(=O)n1` [decitabine, 5-aza-2′-deoxycytidine], the “Alu element methylation after treatment with DAC” value [1] is reported as 21%, the “Alu methylation after DAC as percent of potential methylation sites” value ([2]; pyrosequencing, untreated about 87%) is reported as 62% and the “Alu methylation by pyrosequencing after DAC treatment (average of three CpG sites)” value ([2]; untreated 20.2%, SssI maximum 23.2%) is reported as 14.5%.
